Test results from ChEMBL document CHEMBL1255475, “Mutant prevention concentrations of four carbapenems against gram-negative rods” (2010).

Tests used:
[1] = tested on: Acinetobacter baumannii; assay: Ratio of mutant prevention concentration to minimum Inhibitory concentration for Acinetobacter baumannii A910; format: functional
[2] = tested on: Acinetobacter baumannii; assay: Ratio of mutant prevention concentration to minimum Inhibitory concentration for Acinetobacter baumannii A848; format: functional
[3] = tested on: Pseudomonas aeruginosa; assay: Ratio of mutant prevention concentration to minimum Inhibitory concentration for Pseudomonas aeruginosa P369; format: functional
[4] = tested on: Pseudomonas aeruginosa; assay: Ratio of mutant prevention concentration to minimum Inhibitory concentration for Pseudomonas aeruginosa P356; format: functional
[5] = tested on: Pseudomonas aeruginosa; assay: Ratio of mutant prevention concentration to minimum Inhibitory concentration for Pseudomonas aeruginosa P328; format: functional
[6] = tested on: Acinetobacter baumannii; assay: Ratio of mutant prevention concentration to minimum Inhibitory concentration for Acinetobacter baumannii A901; format: functional
[7] = tested on: Acinetobacter baumannii; assay: Ratio of mutant prevention concentration to minimum Inhibitory concentration for Acinetobacter baumannii A892; format: functional
[8] = tested on: Acinetobacter baumannii; assay: Ratio of mutant prevention concentration to minimum Inhibitory concentration for Acinetobacter baumannii A897; format: functional
[9] = tested on: Acinetobacter baumannii; assay: Ratio of mutant prevention concentration to minimum Inhibitory concentration for Acinetobacter baumannii A865; format: functional
[10] = tested on: Acinetobacter baumannii; assay: Ratio of mutant prevention concentration to minimum Inhibitory concentration for Acinetobacter baumannii A931; format: functional
[11] = tested on: Acinetobacter baumannii; assay: Ratio of mutant prevention concentration to minimum Inhibitory concentration for Acinetobacter baumannii A864; format: functional
[12] = tested on: Pseudomonas aeruginosa; assay: Ratio of mutant prevention concentration to minimum Inhibitory concentration for Pseudomonas aeruginosa P337; format: functional
[13] = tested on: Acinetobacter baumannii; assay: Ratio of mutant prevention concentration to minimum Inhibitory concentration for Acinetobacter baumannii A898; format: functional
[14] = tested on: Acinetobacter baumannii; assay: Ratio of mutant prevention concentration to minimum Inhibitory concentration for Acinetobacter baumannii A896; format: functional
[15] = tested on: Pseudomonas aeruginosa; assay: Ratio of mutant prevention concentration to minimum Inhibitory concentration for Pseudomonas aeruginosa P365; format: functional
[16] = tested on: Pseudomonas aeruginosa; assay: Ratio of mutant prevention concentration to minimum Inhibitory concentration for Pseudomonas aeruginosa P358; format: functional
[17] = tested on: Pseudomonas aeruginosa; assay: Ratio of mutant prevention concentration to minimum Inhibitory concentration for Pseudomonas aeruginosa P352; format: functional
[18] = tested on: Acinetobacter baumannii; assay: Antibacterial activity against Acinetobacter baumannii A884 after 24 hrs by agar dilution method; format: functional; details: A884, 24 h
[19] = tested on: Klebsiella pneumoniae; assay: Antibacterial activity against beta-lactamase-positive ESBL-negative Klebsiella pneumoniae E509 after 24 hrs by agar dilution method; format: functional; details: E509, 24 h
[20] = tested on: Klebsiella pneumoniae; assay: Antibacterial activity against beta-lactamase-positive ESBL-negative Klebsiella pneumoniae E481 after 24 hrs by agar dilution method; format: functional; details: E481, 24 h
[21] = tested on: Klebsiella pneumoniae; assay: Antibacterial activity against beta-lactamase-positive ESBL-negative Klebsiella pneumoniae E477 after 24 hrs by agar dilution method; format: functional; details: E477, 24 h
[22] = tested on: Acinetobacter baumannii; assay: Antibacterial activity against Acinetobacter baumannii A931 after 24 hrs by agar dilution method; format: functional; details: A931, 24 h
[23] = tested on: Escherichia coli; assay: Antibacterial activity against beta-lactamase-positive ESBL-positive Escherichia coli E446 after 24 hrs by agar dilution method; details: E446, 24 h
[24] = tested on: Acinetobacter baumannii; assay: Antibacterial activity against Acinetobacter baumannii A892 after 24 hrs by agar dilution method; format: functional; details: A892, 24 h
[25] = tested on: Acinetobacter baumannii; assay: Antibacterial activity against Acinetobacter baumannii A890 after 24 hrs by agar dilution method; format: functional; details: A890, 24 h
[26] = tested on: Escherichia coli; assay: Antibacterial activity against beta-lactamase-negative Escherichia coli E424 after 24 hrs by agar dilution method; details: E424, 24 h
[27] = tested on: Klebsiella pneumoniae; assay: Antibacterial activity against beta-lactamase-positive ESBL-positive Klebsiella pneumoniae E476 after 24 hrs by agar dilution method; format: functional; details: E476, 24 h
[28] = tested on: Klebsiella pneumoniae; assay: Antibacterial activity against beta-lactamase-positive ESBL-positive Klebsiella pneumoniae E457 after 24 hrs by agar dilution method; format: functional; details: E457, 24 h
[29] = tested on: Escherichia coli; assay: Antibacterial activity against beta-lactamase-positive ESBL-positive Escherichia coli E458 after 24 hrs by agar dilution method; details: E458, 24 h
[30] = tested on: Escherichia coli; assay: Antibacterial activity against beta-lactamase-positive ESBL-negative Escherichia coli E412 after 24 hrs by agar dilution method; details: E412, 24 h
[31] = tested on: Pseudomonas aeruginosa; assay: Antibacterial activity against Pseudomonas aeruginosa P373 after 24 hrs by agar dilution method; details: P373, 24 h
[32] = tested on: Pseudomonas aeruginosa; assay: Antibacterial activity against Pseudomonas aeruginosa P358 after 24 hrs by agar dilution method; format: functional; details: P358, 24 h
[33] = tested on: Acinetobacter baumannii; assay: Antibacterial activity against Acinetobacter baumannii A848 after 24 hrs by agar dilution method; format: functional; details: A848, 24 h
[34] = tested on: Escherichia coli; assay: Antibacterial activity against beta-lactamase-positive ESBL-negative Escherichia coli E484 after 24 hrs by agar dilution method; format: functional; details: E484, 24 h
[35] = tested on: Pseudomonas aeruginosa; assay: Antibacterial activity against Pseudomonas aeruginosa P322 after 24 hrs by agar dilution method; details: P322, 24 h
[36] = tested on: Pseudomonas aeruginosa; assay: Antibacterial activity against Pseudomonas aeruginosa P323 after 24 hrs by agar dilution method; details: P323, 24 h
[37] = tested on: Pseudomonas aeruginosa; assay: Antibacterial activity against Pseudomonas aeruginosa P349 after 24 hrs by agar dilution method; details: P349, 24 h
[38] = tested on: Escherichia coli; assay: Antibacterial activity against beta-lactamase-positive ESBL-negative Escherichia coli E430 after 24 hrs by agar dilution method; details: E430, 24 h
[39] = tested on: Klebsiella pneumoniae; assay: Antibacterial activity against beta-lactamase-negative Klebsiella pneumoniae E419 after 24 hrs by agar dilution method; format: functional; details: E419, 24 h
[40] = tested on: Pseudomonas aeruginosa; assay: Antibacterial activity against Pseudomonas aeruginosa P340 after 24 hrs by agar dilution method; details: P340, 24 h
[41] = tested on: Escherichia coli; assay: Antibacterial activity against beta-lactamase-positive ESBL-positive Escherichia coli E456 after 24 hrs by agar dilution method; details: E456, 24 h
[42] = tested on: Escherichia coli; assay: Antibacterial activity against beta-lactamase-negative Escherichia coli E346 after 24 hrs by agar dilution method; details: E346, 24 h
[43] = tested on: Escherichia coli; assay: Antibacterial activity against beta-lactamase-positive ESBL-positive Escherichia coli E451 after 24 hrs by agar dilution method; details: E451, 24 h
[44] = tested on: Klebsiella pneumoniae; assay: Antibacterial activity against beta-lactamase-positive ESBL-negative Klebsiella pneumoniae E473 after 24 hrs by agar dilution method; format: functional; details: E473, 24 h
[45] = tested on: Acinetobacter baumannii; assay: Antibacterial activity against Acinetobacter baumannii A891 after 24 hrs by agar dilution method; format: functional; details: A891, 24 h
[46] = tested on: Klebsiella pneumoniae; assay: Antibacterial activity against beta-lactamase-positive ESBL-negative Klebsiella pneumoniae E480 after 24 hrs by agar dilution method; format: functional; details: E480, 24 h
[47] = tested on: Klebsiella pneumoniae; assay: Antibacterial activity against beta-lactamase-negative Klebsiella pneumoniae E361 after 24 hrs by agar dilution method; format: functional; details: E361, 24 h
[48] = tested on: Pseudomonas aeruginosa; assay: Antibacterial activity against Pseudomonas aeruginosa P356 after 24 hrs by agar dilution method; details: P356, 24 h
[49] = tested on: Pseudomonas aeruginosa; assay: Antibacterial activity against Pseudomonas aeruginosa P376 after 24 hrs by agar dilution method; details: P376, 24 h
[50] = tested on: Acinetobacter baumannii; assay: Antibacterial activity against Acinetobacter baumannii A901 after 24 hrs by agar dilution method; format: functional; details: A901, 24 h
[51] = tested on: Acinetobacter baumannii; assay: Antibacterial activity against Acinetobacter baumannii A894 after 24 hrs by agar dilution method; format: functional; details: A894, 24 h
[52] = tested on: Pseudomonas aeruginosa; assay: Antibacterial activity against Pseudomonas aeruginosa P352 after 24 hrs by agar dilution method; format: functional; details: P352, 24 h
[53] = tested on: Acinetobacter baumannii; assay: Antibacterial activity against Acinetobacter baumannii A867 after 24 hrs by agar dilution method; format: functional; details: A867, 24 h

C[C@@H](O)[C@H]1C(=O)N2C(C(=O)O)=C(S[C@@H]3CN[C@H](CNS(N)(=O)=O)C3)[C@H](C)[C@H]12 [DORIPENEM]
8: Ratio [3] | Ratio [9] | Ratio [11] | Ratio [12] | Ratio [16]
16: Ratio [7] | Ratio [15]
>16: Ratio [4]
2: Ratio [1] | Ratio [2] | Ratio [5] | Ratio [6] | Ratio [8] | Ratio [10] | Ratio [13] | Ratio [14] | Ratio [17]

C[C@@H](O)[C@H]1C(=O)N2C(C(=O)O)=C(SCCNC=N)C[C@H]12 [IMIPENEM ANHYDROUS]
32 µg/mL: MIC [32]
0.5 µg/mL: MIC [22] | MIC [25] | MIC [38] | MIC [39] | MIC [40] | MIC [45] | MIC [47] | MIC [51]
1 µg/mL: MIC [18]
0.25 µg/mL: MIC [23] | MIC [28] | MIC [30] | MIC [43]
8 µg/mL: MIC [19] | MIC [27] | MIC [52]
4 µg/mL: MIC [20] | MIC [21] | MIC [24] | MIC [33] | MIC [34] | MIC [35] | MIC [44] | MIC [49] | MIC [53]
2 µg/mL: MIC [31] | MIC [36] | MIC [37] | MIC [46] | MIC [48] | MIC [50]
0.125 µg/mL: MIC [26] | MIC [29] | MIC [41] | MIC [42]
